Values after ≈ are worked out from the molar mass of the structure shown. Read-outs that look alike come from different tables or passages of the source.
Legend:
red blood cells = test: titration/hemolysis assay, red blood cell lysis; format: cell-based, CD-1 female mice; conditions: highest drug concentration that did not lyse the red blood cells; 25°C, two hours; 5 percent dextrose
Description: Compound I or a component thereof has potential as a replacement for a known antifungal agent which while effective as an antifungal agent is of limited utility for having lytic effect on red blood cells at low dose levels. This property was discovered in a standard titration/hemolysis assay using fresh blood drawn from CD-1 female mice. In a representative assay, a concentration of Compound IB in the range of from 0.39 to 400 µg/ml in 5 percent dextrose and a drug free control were employed.
In carrying out the determination, the assay tubes prepared by mixing together 2 milliliters of appropriate drug dilution and 0.5 milliliter of red blood cell suspension were gently shaken to mix the contents and then the tubes were incubated at 25°C for two hours. At the end of this time, the tubes were examined visually for complete or partial red blood cell hemolysis and compared to a drug free control. […] The MLC for Compound IB was greater than 400 µg/ml.

Pneumocystis carinii = Pneumocystis carinii infection in immunosuppressed mice, lung cyst count; format: in vivo, C3H/He mice; conditions: 2.0 mg/kg intraperitoneally twice daily, lung tissue
Description: In a representative study on the effectiveness of Compound IB, ten male C3H/He mice, weighing 22-24 gms. each, were immunosuppressed by the addition of dexamethasone to the drinking water (8.0 mg/L) for six weeks to induce the development of P. carinii infections. To enhance the infection the mice were also maintained on a low protein diet. At the beginning of the seventh week the mice were divided into two groups. Both groups continued to receive dexamethasone in the drinking water and low protein diet for the remainder of the study. Mice in Group I were injected intraperitoneally twice daily with 0.5 ml of a 10% dimethylsulfoxide (DMSO) solution as a vehicle control. Mice in Group II were injected intraperitoneally twice daily with 0.5 ml of sterile water containing 0.05 mg of compound IB (dissolved in DMSO, final concentration of DMSO is 10%, actual dose was 2.0 mg/kg). […]
At the end of the treatment period (a total of eight weeks immunosuppression) the animals were sacrificed and the lung tissue removed. The tissue was then processed to determine the number of cysts for each animal. Compound IB reduced the number of cysts by 84% as compared to the control animals. […]

Candida albicans = test: microbroth dilution assay, minimum fungicidal concentration (MFC); format: cell-based
Description: (§1) The activity may be seen in a microbroth dilution assay employing as medium a Yeast Nitrogen Base (Difco) with 1% dextrose (YNBD) as the medium. In carrying out the assay, Compound IB, IC-1 and IC-2 were solubilized in 10 percent dimethyl sulfoxide (DMSO) and diluted to 2560 µg/ml. The compounds were then diluted to 256 µg/ml in YNBD. 0.15 ml of the suspension was dispensed to the top row of a 96-well plate (each well containing 0.15 ml of YNDB) resulting in a drug concentration of 128 µg/ml. Two-fold dilutions were then made from the top row to obtain final drug concentrations ranging from 128 to 0.06 µg/ml.
(§2) The yeast cultures, maintained on Sabouraud dextrose agar were transferred to YM broth (Difco) and incubated overnight at 35°C with shaking (250 rpm). After incubation, each culture was diluted in sterile water to yield a final concentration of 1-5 x 10⁶ colony forming units (CFU)/ml.
(§3) 96-well microplates were inoculated using a MIC-2000 (Dynatech) which delivers 1.5 µl per well yielding a final inoculum per well of 1.5-7.5 x 10³ cells. The microplates were incubated at 35°C for 24 hours. The minimum inhibitory concentrations (MICs) were recorded as the lowest concentrations of drug showing no visible growth.
(§4) After recording the MIC, the plates were shaken to resuspend the cells. Thereafter, […] samples from the wells in the 96-well microplate were transferred to a single well tray containing Sabouraud dextrose agar. The inoculated trays were incubated 24 hours at 28°C and then read. The MFC is defined as the lowest concentration of drug showing no growth or less than 4 colonies per spot.

Candida parapsilosis = test: as above; format: cell-based; conditions: Lodderomyces parapsilosis, YNBD medium
Description: as §1, §2, §3, §4

Candida tropicalis = test: as above; format: cell-based; conditions: read-out: Minimum Fungicidal Concentration
Description: as §1, §2, §3, §4

| Molecule | minimum lytic concentration (MLC) (red blood cells) | reduced the number of cysts as compared to the control animals (Pneumocystis carinii; treatment period one week) | reduced the number of cysts as compared to the control animals (Pneumocystis carinii; treatment period two weeks) | MFC (Candida albicans; read-out: Minimum Fungicidal Concentration, Candida albicans MY 1028, YNBD medium) | MFC (Candida albicans; read-out: Minimum Fungicidal Concentration, Candida albicans MY 1055, YNBD medium) | MFC (Candida albicans; read-out: Minimum Fungicidal Concentration, Candida albicans MY 1208, YNBD medium) | MFC (Candida albicans; read-out: Minimum Fungicidal Concentration, Candida albicans MY 1585, YNBD medium) | MFC (Candida albicans; read-out: Minimum Fungicidal Concentration, Candida albicans MY 1750, YNBD medium) | MFC (Candida albicans; read-out: Minimum Fungicidal Concentration, Candida albicans MY 1783, YNBD medium) | MFC (Candida parapsilosis; read-out: Minimum Fungicidal Concentration, Candida parapsilosis MY 1009) | MFC (Candida parapsilosis; read-out: Minimum Fungicidal Concentration, Candida parapsilosis MY 1010) | MFC (Candida tropicalis) |
| --- | --- | --- | --- | --- | --- | --- | --- | --- | --- | --- | --- | --- |
| C[C@@H]1[C@H](O)[C@@H](C)/C=C/C=C/C=C/C=C/C=C/C=C/C=C/[C@H](O[C@@H]2O[C@H](C)[C@@H](O)[C@H](N)[C@@H]2O)C[C@@H]2O[C@](O)(C[C@@H](O)C[C@@H](O)[C@H](O)CC[C@@H](O)C[C@@H](O)CC(=O)O[C@H]1C)C[C@H](O)[C@H]2C(=O)O [amphotericin B, reference compound] | 12.5 mg/L |  |  |  |  |  |  |  |  |  |  |  |
| 1-[N²-(10,12-dimethyl-1-oxotetradecyl)ornithine]-4-[4-(4-hydroxyphenyl)-2-aminobutanoic acid]-5-(3-hydroxyglutamine)echinocandin B [Compound IC] |  | 66% |  |  |  |  |  |  |  |  |  |  |
| CCC(C)CC(C)CCCCCCCCC(=O)NC1CCC(O)NC(=O)C2C(O)C(C)CN2C(=O)C(C(O)CC(N)=O)NC(=O)C(CCc2ccc(O)cc2)NC(=O)C2CC(O)CN2C(=O)C(C(C)O)NC1=O (stereo not shown) [Compound IB, 1-[5-hydroxy N²-(10, 12-dimethyl-1-oxotetra-decyl)-ornithine]-4-[4-(4-hydroxyphenyl)-2-amino-butanoic acid]-5-(3-hydroxyglutamine) echinocandin B] | greater than 400 µg/ml |  | 84% | 1 mg/L (≈ 0.97 µM) | 0.5 mg/L (≈ 0.485 µM) | 2 mg/L (≈ 1.94 µM) | 1 mg/L (≈ 0.97 µM) | 1 mg/L (≈ 0.97 µM) | 2 mg/L (≈ 1.94 µM) | 16 mg/L (≈ 15.5 µM) | 8 mg/L (≈ 7.76 µM) | 2 mg/L (≈ 1.94 µM) |
